In patent US12653809B2, “Urea, amide, and substituted heteroaryl compounds for CBL-B inhibition” (Nurix Therapeutics, Inc., priority 2019, dated 2026):

Key:
Cbl-b [1] = biological target: T1, Cbl-b (truncated variant, UniProt number Q13191) (Homo sapiens, UniProt Q13191); assay: Cbl-b displacement assay (Cbl-b inhibition assay, fluorophore-labeled probe); format: binding
T1 construct: made in house
From the text: As described in Biological Example 1A, a Cbl-b activity assay (Cbl-b inhibition assay) used to measure the IC50 values for Cbl-b inhibition uses a mixture comprising candidate compound, Cbl-b (truncated, with an Avitag, and biotinylated), a fluorescently-labeled E2 enzyme UbcH5B labelled with ubiquitin conjugated to BODIPY-fluorescein (UbcH5B-Ub), streptavidin-terbium, and assay buffer. In one embodiment, the Cbl-b activity assay (Cbl-b inhibition assay) used to measure IC50 for inhibition of Cbl-b uses the conditions described in Biological Example 1A with 12 nM Cbl-b. […] In another embodiment, the Cbl-b activity assay (Cbl-b inhibition assay) used to measure IC50 for inhibition of Cbl-b uses the conditions described in Biological Example 1B, with candidate compound, 0.125 nM Cbl-b (truncated, with an avitag, and biotinylated), fluorescently labelled inhibitor probe, and assay buffer. Displacement of the inhibitor probe indicates Cbl-b activity.
Candidate compounds were evaluated for their ability to bind and inhibit Cbl-b, an E3 ubiquitin-protein ligase, as evidenced by their ability to displace a fluorophore-labeled probe (Example 168) bound to Cbl-b.
The ability of candidate compounds to displace a known inhibitor and thereby inhibit Cbl-b activity was measured by monitoring the interaction of Cbl-b with a fluorophore-labeled probe in the presence of the candidate compound. A truncated variant of Cbl-b (UniProt number Q13191; SEQ ID NO:1) containing an Avitag at its N-terminus was co-expressed with BirA biotin ligase and purified using a standard protocol (see Dou et al., Nature Structural and Molecular Biology, 8: 982-987, 2013; Avidity LLC).
Fluorescently-labeled inhibitor probe was synthesized and tagged with BODIPY FL (Example 168). Cbl-b displacement assays were performed in a 384-well plate at room temperature in a 10 μL reaction volume by pre-incubating 0.125 nM Cbl-b (final concentration) in an assay buffer containing 20 mM HEPES pH 7.5, 150 mM NaCl, 0.01% Triton X-100, 0.01% BSA, and 0.5 mM TCEP in the presence of a candidate compound in 1% DMSO (final concentration) for one hour. After incubation in the presence of the candidate compound, the plate was incubated for an additional one hour in the presence of an approximate EC40 binding saturation consisting of 150 nM fluorescently-labeled inhibitor probe and 2 nM Streptavidin-Terbium (Cisbio) (final concentrations). Following the one hour incubation, the plates were read for TR-FRET signal at 520/620 nm using an Envision plate reader (Perkin Elmer).
Compounds were ranked into bins A through D as follows for IC50: A indicates <0.1 μM, B indicates 0.1 μM≤IC50<1 μM, C indicates 1 μM≤IC50<5 μM, and D indicates 5 μM≤IC50.

Cbl-b [2] = biological target: T1, Cbl-b; assay: Cbl-b activity assay (TR-FRET, interaction of Cbl-b with UbcH5B-Ub); format: biochemical
[3] = Biological Example 1B, read-out: IC50 values in the Cbl-b inhibition assay of Biological Example 1B
[4] = displacement assay, 0.125 nM Cbl-b, 150 nM fluorescently-labeled inhibitor probe, read-out: Cbl-b activity IC50
[5] = high conditions: 100 mM NaCl, 60 nM Src kinase, 12 nM Cbl-b, read-out: Cbl-b activity IC50
[6] = Biological Example 1A, low or high conditions not stated, read-out: IC50 values in the Cbl-b inhibition assay of Biological Example 1A

T1 sequence (Q13191 36-427): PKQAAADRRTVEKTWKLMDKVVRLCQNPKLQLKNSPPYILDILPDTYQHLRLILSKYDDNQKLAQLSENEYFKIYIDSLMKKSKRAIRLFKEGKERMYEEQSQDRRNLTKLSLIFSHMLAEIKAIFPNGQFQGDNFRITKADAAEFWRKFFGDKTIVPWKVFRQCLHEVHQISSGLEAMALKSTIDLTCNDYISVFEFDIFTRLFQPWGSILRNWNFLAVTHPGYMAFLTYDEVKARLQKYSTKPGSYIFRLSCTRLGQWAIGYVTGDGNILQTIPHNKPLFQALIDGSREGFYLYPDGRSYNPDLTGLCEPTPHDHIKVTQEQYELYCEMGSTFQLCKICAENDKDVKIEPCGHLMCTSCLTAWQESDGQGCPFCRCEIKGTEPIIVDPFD

## Cn1cnnc1CC1(c2cccc(-c3n[nH]c4c(CN5CC[C@H](F)C5)cc(C(F)(F)F)nc34)c2)COC1 [Example 114, (S)-7-((3-fluoropyrrolidin-1-yl)methyl)-3-(3-(3-((4-methyl-4H-1,2,4-triazol-3-yl)methyl)oxetan-3-yl)phenyl)-5-(trifluoromethyl)-1H-pyrazolo[4,3-b]pyridine]
Cbl-b [1]; [3]
  IC50: < 100 nM
Cbl-b [1]; [4]
  IC50: < 100 nM

## Cn1cnnc1[C@@H](c1cccc(-c2n[nH]c3c(CN4CC[C@H](F)C4)cc(C(F)(F)F)nc23)c1)C1CCC1 [Example 115, 3-(3-((R)-cyclobutyl(4-methyl-4H-1,2,4-triazol-3-yl)methyl)phenyl)-7-(((S)-3-fluoropyrrolidin-1-yl)methyl)-5-(trifluoromethyl)-1H-pyrazolo[4,3-b]pyridine]
Cbl-b [1]; [3]
  IC50: < 100 nM
Cbl-b [1]; [4]
  IC50: < 100 nM

## COc1cccc(-c2cc(-c3cccc([C@H](C)Sc4nncn4C)c3)on2)c1 [Example 60, (S)-3-(3-methoxyphenyl)-5-(3-(1-((4-methyl-4H-1,2,4-triazol-3-yl)thio)ethyl)phenyl)isoxazole]
Cbl-b [2]; [5]
  IC50: 1000 to 5000 nM

## CNC(=O)c1ccc(-c2cnn(-c3cccc([C@H](C)Sc4nncn4C)c3)n2)cc1 [Example 82, (S)—N-methyl-4-(2-(3-(1-(4-methyl-4H-1,2,4-triazol-3-ylthio)ethyl)phenyl)-2H-1,2,3-triazol-4-yl)benzamide]
Cbl-b [2]; [6]
  IC50: 1000 to 5000 nM
Cbl-b [2]; [5]
  IC50: 1000 to 5000 nM

## C[C@H](Sc1nncn1C)c1cccc(C(=O)Nc2cc(C(F)(F)F)ccn2)c1 [Example 36, (S)-3-(1-((4-methyl-4H-1,2,4-triazol-3-yl)thio)ethyl)-N-(4-(trifluoromethyl)pyridin-2-yl)benzamide]
Cbl-b [2]; [6]
  IC50: 1000 to 5000 nM
Cbl-b [2]; [5]
  IC50: 1000 to 5000 nM

## C[C@H](Sc1nncn1C)c1cccc(NC(=O)N2CCN(C)CC2)c1 [Example 155, (S)-4-methyl-N-(3-(1-((4-methyl-4H-1,2,4-triazol-3-yl)thio)ethyl)phenyl)piperazine-1-carboxamide]
Cbl-b [2]; [5]
  IC50: ≥ 5000 nM

## Cn1cnnc1CC1(c2cccc(NC(=O)N3CCOc4cccnc43)c2)COC1 [Example 23, N-(3-(3-((4-methyl-4H-1,2,4-triazol-3-yl)methyl)oxetan-3-yl)phenyl)-2,3-dihydro-4H-pyrido[3,2-b][1,4]oxazine-4-carboxamide]
Cbl-b [2]; [5]
  IC50: 100 to 1000 nM

## C[C@H](Cc1nncn1C)c1cccc(-c2n[nH]c3c(N4CCC(O)CC4)cc(C(F)(F)F)nc23)c1 [Example 109, (R)-1-(3-(3-(1-(4-methyl-4H-1,2,4-triazol-3-yl)propan-2-yl)phenyl)-5-(trifluoromethyl)-1H-pyrazolo[4,3-b]pyridin-7-yl)piperidin-4-ol]
Cbl-b [2]; [5]
  IC50: 100 to 1000 nM

## C[C@H](Sc1nncn1C)c1cccc(-n2cc(-c3ccc(Cl)cc3)nn2)c1 [Example 73, (S)-4-(4-chlorophenyl)-1-(3-(1-((4-methyl-4H-1,2,4-triazol-3-yl)thio)ethyl)phenyl)-1H-1,2,3-triazole]
Cbl-b [2]; [6]
  IC50: 1000 to 5000 nM
Cbl-b [2]; [5]
  IC50: 1000 to 5000 nM

## C[C@H](Cc1nncn1C)c1cccc(NC(=O)N2CC(C)(C)Oc3cccnc32)c1 [Example 19, (R)-2,2-dimethyl-N-(3-(1-(4-methyl-4H-1,2,4-triazol-3-yl)propan-2-yl)phenyl)-2,3-dihydro-4H-pyrido[3,2-b][1,4]oxazine-4-carboxamide]
Cbl-b [2]; [6]
  IC50: < 100 nM
Cbl-b [2]; [5]
  IC50: < 100 nM
